According to US9977030B2, “Detection of shed CD31, diagnosis of atherothrombosis and autoimmune disorders, and methods for analyzing signaling pathways” (INSTITUT NATIONAL DE LA SANTE ET DE LA RECHERCHE MEDICALE …, priority 2008, dated 2018):

Tested on: CD31 signaling complex captured by PECAM1.2 (CD31 domain 6) beads
Test: CBA beads assessment of CD31 ITIM-dependent inhibitory pathway in Jurkat T cells (protein association and phosphorylation)
Assay type: cell-based, human
Description: Lysis of the cells. Jurkat T cells in log phase (10×10^6/ml, 1 ml) were either left untouched (negative control) or incubated with Na3VO4/H2O2 (sodium ortovanadate which is a tyrosin phosphatase inhibitor, positive control for tyrosin phosphorylation). In parallel, cells were stimulated either with CD3 or with CD3+ CD31 (domain 2, WM-59 antibody) by antibody-mediated crosslinking. After 20′ incubation at 37° C. in 5% CO2, the cells were lysed on ice for 30′ with a RIPA buffer containing a cocktail of protease and phosphatase inhibitors. Lysates were ultragentrifuged and supernatants were used either straightforward or aliquoted and stored at −20° for further analysis.
Capture of the target protein on a solid support (1 hour at room temperature). This step follows the principle of imunoprecipitation but the signaling complex is nor denatured neither reduced, and no electrophoresis and/or blotting is carried out. As a solid support, CBA® functional beads previously coupled with an antibody directed to the membrane-proximal CD31 Ig-like domain 6 (clone MBC 78.2 also called PECAM1.2) were used following the manufacturer's instructions. An aliquot of 20 μl of lysate supernatant from each condition was incubated with 5 μl PECAM1.2-CBA® for 1 hour at room temperature.
Detection of molecules associated with CD31 and of the phosphorylation state of CD31 ITIM 686. After washing of the beads once with CBA washing buffer (100 μl/tube), the beads were been aliquoted in 4 separate tubes and incubated with fluorescent antibodies directed to: • CD3-FITC; • CD28-PE; • CD31 domain 6 (PECAM1.2 FITC) • CD31 domain 2 (WM-59 PE) • phosphoTyrosin (clone 4G10 FITC); • phosphoSerin/Threonin (labelled with FITC) • CD31 phosphotyrosin 686 (rabbit polyclonal conjugated with alexafluor 488 antirabbit secondary antibody); or • SHP2-PE.
After 1 hour incubation at room temperature in the dark, beads were washed once with 100 μl CBA washing buffer and more than 600 beads were acquired using an LSR II and DIVA® software.
4. Analysis. The median fluorescence in each fluorescent channel was recorded. The DIVA® software also calculated the % CV (variability coefficient), which can be considered as an equivalent of error bar value for repeated measure and allow statistical comparison between samples.

[1] = Jurkat T cell lysate, 20' incubation, captured on PECAM1.2-CBA beads

Question: sodium ortovanadate [Na3VO4/H2O2] was tested. Which “MFI CD3” value (CD3 associated with bead-captured CD31, Jurkat T cells) did it give?
Answer: 354 MFI

Question: And the “MFI CD28” value (CD28 associated with bead-captured CD31, Jurkat T cells)?
Answer: 3932 MFI

Question: And the “% shed CD31” value [1]?
Answer: 25%

Question: And the “CD31 dom2” value [1]?
Answer: 77 ng/mL

Question: What about the “CD31 dom6” value [1] of the same substance?
Answer: 103 ng/mL

Question: What about the “MFI SHP-2” value (SHP-2 associated with bead-captured CD31, Jurkat T cells) of the same substance?
Answer: 193 MFI

Question: And the “MFI CD31 pY686” value (bead-captured CD31, Jurkat T cells)?
Answer: 10667 MFI

Question: What about the “MFI pSer/pThreo” value (phosphoSerin/Threonin on bead-captured CD31 complex, Jurkat T cells) of the same substance?
Answer: 324 MFI

Question: And the “MFI pY (4G10)” value (total phosphoTyrosin on bead-captured CD31 complex, Jurkat T cells)?
Answer: 1205 MFI
